As usually defined, the solubility is how much of the substance goes into solution per volume. What is called EC50 is the concentration that produces a half-maximal response. In general, CC50 refers to the concentration that lowers cell viability or growth by half. A higher CC50 goes with better tolerance by the cells. Broadly, the half-life is how long it takes for the measured level to halve. What is called IC50 is the concentration at which inhibition is half-maximal. The term MRT inf denotes a mean duration of stay, worked out from the concentration-time curve. Broadly, the AUC is concentration integrated over time. The low end stands for low exposure, the high end for high exposure. Broadly, the AUC(0-inf) is total exposure, with the tail of the curve extrapolated. High values mean more exposure, low ones less exposure. For orientation: clearance means a measure of how efficiently the substance is removed, as volume per time. High values mean efficient removal, low ones inefficient removal. The Cmax is the highest concentration seen after dosing. By Tmax is commonly meant the time at which the peak concentration occurs.

A short description of data set [1]: Oral bioavailability in Sprague-Dawley rat at 5 mg/kg by LCMS analysis. The format is ADME, organism-based. The note with it: in vivo.
A short description of data set [2]: Aqueous solubility of compound in PBS at pH 7 by HPLC-UV analysis.
Data set [3] can be described thus: Aqueous solubility of compound in PBS at pH 7.4 by HPLC-UV analysis.
In data set [4] the test system is Human immunodeficiency virus 1. In words: Anti-viral activity against HIV1 harboring RT K103N mutant infected […] cells assessed as protection against virus-induced cytopathic effect by MTT assay. It is filed as functional, organism-based. The note with it: Human immunodeficiency virus 1, MT4.
Data set [5] in a line: Cytotoxicity against mock infected human MT4 cells by MTT assay.
Data set [6] deals with Human immunodeficiency virus 1. In words: Anti-viral activity against HIV1 harboring RT Y188L mutant infected […] cells assessed as protection against virus-induced cytopathic effect by MTT assay. The format is functional, organism-based. Conditions: Human immunodeficiency virus 1, MT4. In general terms: Protection from cytopathic effect is a common read-out in antiviral testing.

A short description of data set [7]: Solubility of compound in PBS at pH 4.5 by HPLC-UV analysis. It is filed as physicochemical.
Data set [8] is described as follows: Selectivity index, ratio of CC50 for mock infected human MT4 cells to IC50 for HIV1 IIIB infected human MT4 cells.
Data set [9] in a line: Stability in rat liver microsome assessed as binding constant at 1 uM in presence of NADPH by LC/MS/MS analysis. The note with it: microsomes.
A short description of data set [10]: Stability in human liver microsome assessed as binding constant at 1 uM in presence of NADPH by LC/MS/MS analysis. Conditions: microsomes. Background: Liver microsomes are vesicles of endoplasmic reticulum, rich in cytochrome P450 enzymes.
Data set [11] concerns Human immunodeficiency virus 1. The data set can be described thus: Antiviral activity against HIV1 IIIB infected human MT4 cells assessed as protection against virus-induced cytopathic effect by MTT assay. It is filed as functional, organism-based. The note with it: Human immunodeficiency virus 1, IIIB.
The nature of data set [12]: in vitro. The note with it: rat.
A short description of data set [13]: in vitro. Conditions: rat. The source holds these as a separate data set.
Data set [14] has as its system Human immunodeficiency virus 1. The data set can be described thus: Anti-viral activity against HIV1 harboring RT Y181C mutant infected […] cells assessed as protection against virus-induced cytopathic effect by MTT assay. The format is functional, organism-based. Conditions: Human immunodeficiency virus 1, MT4.
The test system of data set [15] is Human immunodeficiency virus 1. In words: Anti-viral activity against HIV1 harboring RT E138K mutant infected […] cells assessed as protection against virus-induced cytopathic effect by MTT assay. The format is functional, organism-based. Conditions: Human immunodeficiency virus 1, MT4.
Data set [16] has as its target Human immunodeficiency virus type 1 reverse transcriptase (Human immunodeficiency virus 1, UniProt Q72547). In words: Inhibition of recombinant wild-type HIV1 p66/p51 reverse transcriptase assessed as inhibition of [3H][…] incorporation using poly (rA) as templates incubated for 40 mins by spectrofluorometer.
Data set [17] deals with Human immunodeficiency virus 1. The data set can be described thus: Anti-viral activity against HIV1 harboring RT L100I mutant infected […] cells assessed as protection against virus-induced cytopathic effect by MTT assay. It is filed as functional, organism-based. Conditions: Human immunodeficiency virus 1, MT4.
Data set [18] in a line: Acute toxicity in fasted mouse assessed as pathological changes in liver at 2 g/Kg, IG upto 2 weeks after 14 days by H and E staining based analysis. It is filed as tissue-based. Conditions: in vivo, po, 2000 mg/kg, 336 h.
The nature of data set [19]: Acute toxicity in fasted mouse assessed as mouse death at 2 g/Kg, IG. Conditions: in vivo, po, 2000 mg/kg.
Data set [20] in a line: Acute toxicity in fasted mouse assessed as pathological changes in brain at 2 g/Kg, IG upto 2 weeks after 14 days by H and E staining based analysis. It is filed as tissue-based. Conditions: in vivo, po, 2000 mg/kg, 336 h.
A short description of data set [21]: Half life in Sprague-Dawley rat at 5 mg/kg, po by LCMS analysis. The note with it: in vivo. The format is ADME, organism-based.
Data set [22] is described as follows: MRT (infinity) in Sprague-Dawley rat at 1 mg/kg, iv by LCMS analysis. The format is ADME, organism-based. Conditions: in vivo.
Data set [23] in a line: in vitro. Conditions: human, liver microsomes.
Data set [24] can be described thus: AUC (all) in Sprague-Dawley rat at 5 mg/kg, po by LCMS analysis. It is filed as ADME, organism-based. On the set-up: dose 5 mg/kg. Conditions: in vivo.
Data set [25] is described as follows: AUC (infinity) in Sprague-Dawley rat at 1 mg/kg, iv by LCMS analysis. The format is ADME, organism-based. On the set-up: route intravenous, time infinity, dose 1 mg/kg. The note with it: in vivo.
A short description of data set [26]: Clearance in Sprague-Dawley rat at 1 mg/kg, iv. Conditions: in vivo. It is filed as ADME, organism-based.
The nature of data set [27]: Acute toxicity in fasted mouse assessed as pathological changes in spleen at 2 g/Kg, IG upto 2 weeks after 14 days by H and E staining based analysis. It is filed as tissue-based. The note with it: in vivo, po, 2000 mg/kg, 336 h.
The nature of data set [28]: Acute toxicity in fasted mouse assessed as pathological changes in heart at 2 g/Kg, IG upto 2 weeks after 14 days by H and E staining based analysis. The format is tissue-based. Conditions: in vivo, po, 2000 mg/kg, 336 h.
A short description of data set [29]: AUC (all) in Sprague-Dawley rat at 1 mg/kg, iv by LCMS analysis. Further details: dose 1 mg/kg. Conditions: in vivo. The format is ADME, organism-based.
The nature of data set [30]: Half life in Sprague-Dawley rat at 1 mg/kg, iv by LCMS analysis. The format is ADME, organism-based. The note with it: in vivo.
A short description of data set [31]: Acute toxicity in fasted mouse assessed as pathological changes in kidney at 2 g/Kg, IG upto 2 weeks after 14 days by H and E staining based analysis. It is filed as tissue-based. Conditions: in vivo, po, 2000 mg/kg, 336 h.
Data set [32] can be described thus: in vitro. Conditions: human, liver microsomes. The source holds these as a separate data set.
Data set [33] in a line: Acute toxicity in fasted mouse assessed as pathological changes in lung at 2 g/Kg, IG upto 2 weeks after 14 days by H and E staining based analysis. The format is tissue-based. The note with it: in vivo, po, 2000 mg/kg, 336 h.
A short description of data set [34]: Stability in mouse liver microsome assessed as binding constant at 1 uM in presence of NADPH by LC/MS/MS analysis. The format is ADME. The note with it: microsomes.
Data set [35] is described as follows: Intrinsic clearance in mouse liver microsome at 1 uM in presence of NADPH by LC/MS/MS analysis. Conditions: liver microsomes, read-out: CLH. The format is ADME.
A short description of data set [36]: Acute toxicity in fasted mouse assessed as behavioral changes at 2 g/Kg, IG upto 2 weeks. The note with it: in vivo, po, 2000 mg/kg, 336 h.
Data set [37] can be described thus: MRT (infinity) in Sprague-Dawley rat at 5 mg/kg, po by LCMS analysis. It is filed as ADME, organism-based. Conditions: in vivo.
The nature of data set [38]: Cmax in Sprague-Dawley rat at 1 mg/kg, iv by LCMS analysis. It is filed as ADME, organism-based. Further details: route intravenous, dose 1 mg/kg. The note with it: in vivo.
Data set [39] can be described thus: Stability in mouse liver microsome assessed as half life at 1 uM in presence of NADPH by LC/MS/MS analysis. The note with it: liver microsomes. It is filed as ADME.
Data set [40] in a line: AUC (infinity) in Sprague-Dawley rat at 5 mg/kg, po by LCMS analysis. Further details: route oral, time infinity, dose 5 mg/kg. Conditions: in vivo. The format is ADME, organism-based.
The nature of data set [41]: Tmax in Sprague-Dawley rat at 5 mg/kg, po by LCMS analysis. It is filed as ADME, organism-based. Conditions: in vivo.
Data set [42] can be described thus: Acute toxicity in fasted mouse assessed as weight loss at 2 g/Kg, IG upto 2 weeks. Conditions: in vivo, po, 2000 mg/kg, 336 h.

With `Cc1cc(/C=C/C#N)cc(C)c1Nc1ccnc(Nc2ccc(C#N)cc2)n1.Cl` [RILPIVIRINE HYDROCHLORIDE], the bioavailability in [1] is 32%.

As to `Cl.N#Cc1ccc(Nc2nccc(Nc3c(F)cc(-c4ccc(C#N)cc4)cc3F)n2)cc1`, in data set [2] (PBS), the solubility is 5.6 µg/mL.

With `Cc1cc(C#N)cc(C)c1Oc1nc(Nc2ccc(C#N)cc2)nc(N)c1Br` [ETRAVIRINE], the solubility in [3] (PBS) and in data set [2] (PBS) was < 1 µg/mL in each case. In addition, the EC50 stood at 3.4 nM in data set [4] and 29.3 nM in data set [6]. Moreover, the CC50 in data set [5] is > 4600 nM.

Consider `O=c1c2nc([N+](=O)[O-])cn2ccn1Cc1ccccc1`, for which the solubility entry in data set [7] (buffer) was “Insoluble”.

Take `Cc1cc(-c2ccc(C#N)cc2)cc(C)c1Nc1ccnc(Nc2ccc(C#N)cc2)n1`: in [8], the selectivity ratio was found to be 2080. The compound further displayed a CC50 in data set [5] of 2100 nM. Moreover, the K in [9] came to 0.045 min⁻¹; in data set [10], 0.047 min⁻¹. In addition, the EC50 in data set [11] came to 1 nM.

For the compound `Cc1cc(/C=C/C#N)cc(C)c1Nc1ccnc(Nc2ccc(C#N)cc2)n1` [RILPIVIRINE], the solubility in [3] (buffer) and in data set [2] (buffer) was < 1 µg/mL each time.

With `N#Cc1ccc(Nc2nccc(Nc3c(F)cc(-c4ccc(C#N)cc4)cc3F)n2)cc1`, in [5], the CC50 was > 294000 nM. Moreover, in data set [1], the bioavailability amounted to 44%. The K was determined as 0.0157 min⁻¹ in data set [9] and 0.0219 min⁻¹ in data set [10]. For the same compound, the microsomal CLint at 1 µM in [12] (microsomes) amounted to 15.7 µL/min/mg. Also, in [11], the concentration giving a half-maximal response (EC50) is 1 nM. In addition, the half-life at 1 µM in [13] (microsomes) was determined as 44.3 min.

For `O=c1c2nc([N+](=O)[O-])cn2ccn1Cc1cccnc1`, in [7] (PBS, read-out: solubility), the solubility is > 200 µM.

As to `N#Cc1ccc(Nc2nccc(Nc3c(F)cc(-c4ccnc(F)c4)cc3F)n2)cc1`, the EC50 was 80 nM in data set [14]; 42 nM in [4]; 1260 nM in data set [6]; 14.3 nM in data set [15]; 3.8 nM in [11]; 397 nM in data set [17]. Further, in data set [8], the selectivity ratio turned out to be 1310. Half-maximal cytotoxicity in data set [5] (CC50) was put at 5000 nM. Besides, in [16], the IC50 turned out to be 11 nM.

Take `Cl.N#Cc1ccc(Nc2nccc(Nc3c(F)cc(-c4ccncc4)cc3F)n2)cc1`: the Activity result in data set [18], in data set [19], in data set [20], in data set [27], in [28] and in [31] was “Non-Toxic” in each case. Also, the Activity result in [33], in data set [36] and in data set [42] was “Non-Toxic” throughout. The half-life in [21] was 50.4 min; in data set [30] it was 45.6 min. Moreover, the MRT inf in [22] was 50.4 min; in data set [37] it was 101 min. The values for the microsomal CLint at 1 µM in data set [23], in [12] (liver microsomes) and in [35] were 28 µL/min/mg, 43 µL/min/mg and 52 µL/min/mg, respectively. Moreover, the AUC in data set [24] was found to be 3340 ng·h/mL; in data set [29], 526 ng·h/mL. Besides, the AUC(0-inf) turned out to be 531 ng·h/mL in data set [25] and 3350 ng·h/mL in data set [40]. Also, the clearance in [26] was determined as 32 mL/min/kg. For the same compound, in [1], the bioavailability came to 126%. Besides, the K in [9] worked out at 0.0215 min⁻¹; in [10], 0.0142 min⁻¹; in data set [34] it was 0.0259 min⁻¹. For the same compound, the half-life at 1 µM in [32] worked out at 49 min; in data set [13] (liver microsomes), 32 min; in data set [39] it was 27 min. The same compound came in with a Cmax in data set [38] of 1370 ng/mL. Besides, the Tmax in data set [41] is 34.8 min.

The values above are taken from ChEMBL document CHEMBL5032511, “Improving Druggability of Novel Diarylpyrimidine NNRTIs by a Fragment-Based Replacement Strategy: From Biphenyl-DAPYs to Heteroaromatic-Biphenyl-DAPYs” (J Med Chem, 2021).
